Test results reported in patent publication US20100280975A1, “SYSTEMS FOR CLINICAL TRIALS” (WisTa Laboratories Ltd., priority 2007, published 2010).

What was measured:
[1] = tested on: mild and moderate dementia of the Alzheimer type; experiment: rember™ Phase 2 study: ADAS-cog change over 24 weeks; details: for Estimate, change in ADAS-cog score vs intercept (placebo), linear least squares / Estimate, change in ADAS-cog score vs intercept (placebo), linear mixed effects: without interaction term
[2] = tested on: mild and moderate dementia of the Alzheimer type; experiment: rember™ study: ADAS-cog change over 50 weeks, linear imputation for fit-survivor bias; assay type: in vivo, human; details: for Estimated change from baseline, Least Exposed Dose comparator method / Estimated effect size, Least Exposed Dose comparator method: 50 weeks; for Estimated effect size, Least Exposed Dose comparator method: vs placebo-low arm; for Effect size inferred from least-squares analysis at 50 weeks / Effect size inferred from mixed effects analysis at 50 weeks: vs inferred placebo
Description: A method has been developed by the inventors which has not been described previously which permits unbiased correction for the fit-survivor phenomenon. […] If a patient who was CDR-moderate at baseline discontinued medication at some time after 24 weeks, a straight line is fitted to the graph of available ADAS-cog change scores against visit-date for the available data for each subject. The line was not forced to pass through zero, to allow for placebo effect, and because the first visit is subject to random fluctuations. The use of a straight-line fit per-subject is supported by the large studies of Stern et al., (1994), Doraiswamy et al., (2001) and Winblad, B., Wimo, A., Engedal, K., Soininen, H., Verhey, F., Waldemar, G., Wetterholm, A. L., Haglund, A., Zhang, R., Schindler, R. (2006) 3-year study of donepezil therapy in Alzheimer's disease: effects of early and continuous therapy. […] The same approach can be applied to other outcome measures for which there were assessments scheduled after 24 weeks.
Subjects originally randomized to placebo were switched to the low (100 mg) dose bd after 24 weeks. This is referred to as the “placebo-low” treatment arm.
In this chart, the labelling conventions of “placlow” refers to subjects randomised to placebo and changed to low (100 mg) bd after 24 weeks, “low” refers to low (100 mg) dose tid, “30 mg” refers to 30 mg dose tid and “60 mg” refers to 60 mg dose tid.

[3] = tested on: mild and moderate dementia of the Alzheimer type; experiment: Mild-brought-forward confirmatory analysis of ADAS-cog over 25 weeks; assay type: in vivo, human; details: for Mild-brought-forward CDR-mild effect size over 25 weeks / Mild-brought-forward CDR-moderate effect size over 25 weeks / Mild-brought-forward confirmatory analysis, overall effect size over 25 weeks: vs placebo/placebo-low; for Mild-brought-forward confirmatory analysis, overall change from baseline over 25 weeks: whole population, mixed-effects model
[4] = Adverse effects in the rember™ trial; assay type: in vivo, human
Description: Thus subjects in the Least Exposed Dose arm (ie subjects switched to the low (100 mg) dose after 6 months) who continued to decline withdrew from the study largely after 24 weeks. […] However, biased withdrawal was not a factor in CDR-mild subjects in the same low (100 mg) comparator treatment arm. Therefore the primary driver of non-random withdrawal in the rember™ trial was the experience of continuing rapid decline which was most apparent in the CDR-moderate group.

[5] = tested on: mild and moderate dementia of the Alzheimer type; experiment: rember™ study: MMSE over 50 weeks; assay type: in vivo, human
Description: Another standardised test is the Mini-Mental State Examination [MMSE] which was proposed as a simple and quickly administered method for grading cognitive function (Folstein M F, Folstein S E & McHugh P R. ‘Mini-mental state’. A practical method for grading the cognitive state of patients for the clinician. Journal of Psychiatric Research 1975 12 189-198.). The MMSE is the most widely used cognitive screening instrument for the detection of cognitive dysfunction due to dementia in geriatric and psychiatric patients (Tombaugh T N & McIntyre N J. The mini-mental state examination: a comprehensive review. Journal of the American Geriatric Society 1992 40 922-935). The MMSE evaluates orientation, memory, attention and language functions.
The mean decline observed over the 50-week study in placebo-treated subjects was 7.8 ADAS-cog units (FIG. 19). […] On the ADAS-cog scale, about 60% of subjects improved or stayed the same at 50 weeks. On the MMSE scale, 62% improved or stayed the same at 50 weeks. The odds of a patient not declining on either scale were about 3.4 times better at the 60 mg dose than on placebo-low. The corresponding effect sizes were −6.8 ADAS-cog units and 3.2 MMSE units over the 50-week trial.

[6] = ITT/OC, week 24, low (100 mg) tid

CN(C)c1ccc2nc3ccc(=[N+](C)C)cc-3sc2c1 [rember™, methylthioninium chloride]
Estimate, change in ADAS-cog score vs intercept, linear mixed effects ([1]; ITT/OC, with interaction term, week 24, CDR-moderate, low (100 mg) tid): 1.13 ADAS-cog units | Estimate, change in ADAS-cog score vs intercept (placebo), linear least squares ([1]; ITT/OC, week 24, 30 mg tid): 0.00 ADAS-cog units | Estimate, change in ADAS-cog score vs intercept (placebo), linear mixed effects ([1]; ITT/OC, week 24, 30 mg tid): −0.07 ADAS-cog units | Estimate, change in ADAS-cog score vs intercept (placebo), linear least squares ([1]; ITT/OC, week 24, 60 mg tid): −0.95 ADAS-cog units | Estimate, change in ADAS-cog score vs intercept (placebo), linear mixed effects ([1]; ITT/OC, week 24, 60 mg tid): −1.13 ADAS-cog units | Estimate, change in ADAS-cog score vs intercept (placebo), linear least squares [1, 6]: 0.08 ADAS-cog units | Estimate, change in ADAS-cog score vs intercept (placebo), linear mixed effects [1, 6]: −0.04 ADAS-cog units | mean effect sizes in moderate subjects over 24 weeks ([1]; severity as interaction term, CDR-moderate, 60 mg dose): −2.7 to −3.7 ADAS-cog units | initial symptomatic improvement at 15 weeks, ADAS-cog ([2]; 60 mg dose): 1.6 ADAS-cog units | subjects improved or stayed the same on the ADAS-cog scale at 50 weeks ([2]; 60 mg tid): about 60% | Estimated change from baseline, Least Exposed Dose comparator method ([2]; 30 mg tid): 3.95 ADAS-cog units | Estimated change from baseline, Least Exposed Dose comparator method ([2]; low (100 mg) tid): 4.00 ADAS-cog units | Estimated effect size, Least Exposed Dose comparator method ([2]; 30 mg tid): −2.80 ADAS-cog units | Estimated effect size, Least Exposed Dose comparator method ([2]; 60 mg tid): −5.71 ADAS-cog units | Estimated effect size, Least Exposed Dose comparator method ([2]; low (100 mg) tid): −2.76 ADAS-cog units | Effect size inferred from least-squares analysis at 50 weeks ([2]; 30 mg tid): −4.37 ADAS-cog units | Effect size inferred from mixed effects analysis at 50 weeks ([2]; 30 mg tid): −3.87 ADAS-cog units | Effect size inferred from least-squares analysis at 50 weeks ([2]; 60 mg tid): −6.50 ADAS-cog units | Effect size inferred from least-squares analysis at 50 weeks ([2]; low (100 mg) tid): −3.59 ADAS-cog units | Effect size inferred from mixed effects analysis at 50 weeks ([2]; low (100 mg) tid): −4.04 ADAS-cog units | Mild-brought-forward CDR-mild change over 25 weeks ([3]; 30 mg): 3.07 ADAS-cog units | Mild-brought-forward CDR-mild change over 25 weeks ([3]; 60 mg): 1.07 ADAS-cog units | Mild-brought-forward CDR-mild change over 25 weeks ([3]; low (100 mg)): 3.60 ADAS-cog units | Mild-brought-forward CDR-mild effect size over 25 weeks ([3]; 30 mg): −1.19 ADAS-cog units | Mild-brought-forward CDR-mild effect size over 25 weeks ([3]; 60 mg): −3.19 ADAS-cog units | Mild-brought-forward CDR-mild effect size over 25 weeks ([3]; low (100 mg)): −0.66 ADAS-cog units | Mild-brought-forward CDR-moderate change over 25 weeks ([3]; 60 mg): 0.30 ADAS-cog units | Mild-brought-forward CDR-moderate change over 25 weeks ([3]; low (100 mg)): 4.82 ADAS-cog units | Mild-brought-forward CDR-moderate effect size over 25 weeks ([3]; 30 mg): 4.33 ADAS-cog units | Mild-brought-forward CDR-moderate effect size over 25 weeks ([3]; 60 mg): −5.67 ADAS-cog units | Mild-brought-forward CDR-moderate effect size over 25 weeks ([3]; low (100 mg)): −0.54 ADAS-cog units | Mild-brought-forward confirmatory analysis, overall effect size over 25 weeks ([3]; 30 mg): −2.39 ADAS-cog units | Mild-brought-forward confirmatory analysis, overall effect size over 25 weeks ([3]; 60 mg): −3.85 ADAS-cog units | Mild-brought-forward confirmatory analysis, overall effect size over 25 weeks ([3]; low (100 mg)): −0.84 ADAS-cog units | Mild-brought-forward confirmatory analysis, overall change from baseline over 25 weeks ([3]; 30 mg): 2.26 ADAS-cog units | Mild-brought-forward confirmatory analysis, overall change from baseline over 25 weeks ([3]; 60 mg): 0.78 ADAS-cog units | Mild-brought-forward confirmatory analysis, overall change from baseline over 25 weeks ([3]; low (100 mg)): 3.81 ADAS-cog units | adverse effects ([4]; low (100 mg) bd, second 6-months of the study): adverse effects, most notably diarrhea | haematological side effects ([4]; tid vs. bd dosing regimes): showed a clear dose-response profile | initial symptomatic improvement at 15 weeks, MMSE ([5]; 60 mg dose): 0.8 MMSE units | effect size on MMSE over the 50-week trial ([5]; 60 mg tid): 3.2 MMSE units | subjects improved or stayed the same on the MMSE scale at 50 weeks ([5]; 60 mg tid): 62%
